In US20200165225A1, “BACE1 INHIBITORS FOR TREATMENT OF ALZHEIMER'S DISEASE” (NantBio, Inc., priority 2017, published 2020):

Each compound was assayed against BACE-1 (Homo sapiens, UniProt P56817) (assay: Inhibition of BACE cleavage of a P5-P5′ fluorescent peptide substrate containing the Swedish mutation cleavage site). Conditions: fluorogenic P5-P5′ BACE-1 substrate; 30 minutes preincubation at room temperature; signal read every 30 minutes at 25° C. for 2 hr.
BACE-1, sequence (P56817 46-501): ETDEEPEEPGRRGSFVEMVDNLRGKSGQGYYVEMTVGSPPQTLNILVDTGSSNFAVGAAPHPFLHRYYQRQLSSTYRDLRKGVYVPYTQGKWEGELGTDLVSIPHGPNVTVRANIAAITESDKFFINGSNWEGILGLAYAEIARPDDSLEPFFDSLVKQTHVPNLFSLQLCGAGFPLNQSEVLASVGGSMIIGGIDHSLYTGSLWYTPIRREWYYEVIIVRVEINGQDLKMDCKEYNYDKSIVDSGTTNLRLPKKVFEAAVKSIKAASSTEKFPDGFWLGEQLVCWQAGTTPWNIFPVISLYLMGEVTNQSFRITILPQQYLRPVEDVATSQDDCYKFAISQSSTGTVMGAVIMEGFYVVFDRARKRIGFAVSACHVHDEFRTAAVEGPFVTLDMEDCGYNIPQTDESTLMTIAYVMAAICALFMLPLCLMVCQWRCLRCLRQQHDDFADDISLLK
Format: biochemical
Method: The compounds were evaluated for inhibition of BACE cleavage of a P5-P5′ fluorescent peptide substrate containing the Swedish mutation cleavage site. In detail, 4 μL of assay buffer was added to each well, followed by 2 μL of BACE-1 diluted in assay buffer to 7.5 ng/uL. Then, 2 μL of compound, at concentrations along an 11 pt. two-fold dilution series starting at 10 uM, or 0.5 uM, were added to the appropriated wells and incubated for 30 minutes at room temperature. For all dilutions of inhibitor, the compound stock solutions of 10 mM in DMSO were diluted to 50 uM in water; subsequent dilutions were in 0.5% DMSO. Afterwards, 2 μL of fluorogenic P5-P5′ BACE-1 substrate, diluted to 50 μM in assay buffer, were added to each well, after which the signal generated was read every 30 minutes at 25° C. for 2 hr.
CN1C(=O)C(c2cccc(-c3cncnc3)c2)(c2ccnc(C(F)F)c2)N=C1N (centres unmarked) [Compound 1] was tested, and the IC50 was 30 nM. For CN1C(=O)C(c2cccc(-c3cncnc3)c2)(c2ccnc(C(F)(F)F)c2)N=C1N (centres unmarked) [Compound 2], the IC50 was 70 nM. With Cc1cc(C2(c3ccnc(C(F)(F)F)c3)N=C(N)N(C)C2=O)ccc1OC(F)F (centres unmarked) [Compound 3] the IC50 was 9720 nM. CN1C(=O)C(c2ccc(C(F)(F)F)nc2)(c2cccc(-c3cncnc3)c2)N=C1N (centres unmarked) [Compound 4] was tested, and the IC50 was 980 nM. CN1C(=O)C(c2cccc(-c3cncnc3)c2)(c2cccc(C(F)(F)F)n2)N=C1N (centres unmarked) [Compound 5] was tested, and the IC50 was 7860 nM. Work on CN1C(=O)C(c2ccc(C(F)F)nc2)(c2cccc(-c3cncnc3)c2)N=C1N (centres unmarked) [Compound 6] yielded an IC50 of 940 nM. CN1C(=O)C(c2cccc(-c3cncnc3)c2)(c2cccc(C(F)F)n2)N=C1N (centres unmarked) [Compound 7] gave an IC50 of 500 nM. In the case of CN1C(=O)C(c2cccc(-c3cncnc3)c2)(c2cccc(C(F)F)c2)N=C1N (centres unmarked) [Compound 8], the IC50 is reported as 170 nM.
